Three compounds from ChEMBL document CHEMBL1146367, “Substituted thiophene-anthranilamides as potent inhibitors of human factor Xa” (Bioorg Med Chem, 2007) can be followed below.

Series [1] can be described thus: Dissociation constant, pKa of the compound. It counts as physicochemical.
The target of another series is Coagulation factor X (Homo sapiens, UniProt P00742). The experiment in a line: Binding affinity to human factor 10a after 10 mins. As to conditions: read-out: Ki app.
Series [2] in a line: Binding affinity to bovine trypsin after 10 mins. Further details: species or system Bos taurus. As to conditions: read-out: Ki app.
Another series has as its system Plasma. Description: Anticoagulant activity in human plasma assessed as concentration required to double prothrombin time. It counts as functional, cell-free.
In a further series the target is Prothrombin (Homo sapiens, UniProt P00734). The experiment in a line: Binding affinity to human thrombin after 10 mins. As to conditions: read-out: Ki app.
Series [3] is described as follows: Clearance in Beagle dog at 1 mg/kg, iv. Set-up: dose 1 mg/kg, route intravenous. To be noted: in vivo. It counts as ADME, organism-based, Canis lupus familiaris.
Series [4] in a line: Volume of distribution at steady state in Beagle dog at 1 mg/kg, iv. It counts as ADME, organism-based, Canis lupus familiaris. Further details: dose 1 mg/kg, route intravenous. To be noted: in vivo, read-out: Vdss.
Series [5] is described as follows: Bioavailability in Beagle dog at 10 mg/kg, po. The format is ADME, organism-based, Canis lupus familiaris. To be noted: in vivo.
Series [6] can be described thus: Plasma concentration in Beagle dog at 10 mg/kg, po. Further details: dose 10 mg/kg, route oral. The format is ADME, organism-based, Canis lupus familiaris.
Series [7] is described as follows: Half life in Beagle dog at 1 mg/kg, iv. It counts as ADME, organism-based, Canis lupus familiaris. Set-up: dose 1 mg/kg, route intravenous. As to conditions: in vivo.

Chain of Coagulation factor X (P00742 41-179 limits assumed): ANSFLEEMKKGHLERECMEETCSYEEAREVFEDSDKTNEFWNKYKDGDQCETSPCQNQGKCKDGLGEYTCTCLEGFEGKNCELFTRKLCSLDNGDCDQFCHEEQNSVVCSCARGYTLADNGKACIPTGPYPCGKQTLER
Chain of Coagulation factor X (P00742 235-488 limits assumed): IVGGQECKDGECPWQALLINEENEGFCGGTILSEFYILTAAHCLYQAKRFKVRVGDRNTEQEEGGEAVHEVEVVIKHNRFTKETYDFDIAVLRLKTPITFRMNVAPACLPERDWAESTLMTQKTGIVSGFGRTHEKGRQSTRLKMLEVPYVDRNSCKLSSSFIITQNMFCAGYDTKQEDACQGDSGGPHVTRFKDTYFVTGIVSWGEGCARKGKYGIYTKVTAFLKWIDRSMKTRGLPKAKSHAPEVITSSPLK

The pKa is the negative logarithm of the acid dissociation constant. In turn, `CN(C)CCSCc1csc(C(=O)Nc2ccc(Cl)cc2C(=O)Nc2ccc(Cl)cc2)c1Cl` had a pKa in series [1] of 8.9. Further, the Ki was 2.7 nM on Coagulation factor X, above 5000 nM in series [2] and 560 nM on Prothrombin. Also, in the series on Plasma, the Cp came to 19 µM.
One may read the clearance as the volume of plasma or blood freed of the substance per unit of time. A high value points to efficient removal. Usually bioavailability stands for the share of a dose that reaches the circulation, judged against a reference dose that is usually intravenous. Low readings indicate little systemic uptake, high ones much systemic uptake. Usually Cmax stands for the peak of the concentration-time curve. By half-life is commonly meant how long it takes for the measured level to halve. Read a low half-life as rapid decline. As for `CN1CCN(Cc2csc(C(=O)Nc3ccc(Cl)cc3C(=O)Nc3ccc(Cl)cc3)c2Cl)CC1`, the clearance in series [3] was 5 mL/min/kg. In addition, in series [4], the Vd came to 0.7 L/kg. The bioavailability in [5] came to 41%. In [6], this compound returned a Cmax of 6.3 µM. In [7], the half-life is 2 h. For the same compound, the values for the Ki (at Coagulation factor X; in series [2]; on Prothrombin) were 1 nM, above 5000 nM and 910 nM, respectively. In addition, in the series with Plasma, the Cp was determined as 12 µM.
With `CN(Cc1csc(C(=O)Nc2ccc(Cl)cc2C(=O)Nc2ccc(Cl)cc2)c1Cl)CC(O)CO` (stereo not drawn), the Ki was 1.4 nM on Coagulation factor X, above 5000 nM in series [2] and 990 nM on Prothrombin. Also, in the series on Plasma, the Cp was found to be 11 µM.
